Experimental data reported in paper PMC7203344, “Sirtuin 1 Inhibiting Thiocyanates (S1th)—A New Class of Isotype Selective Inhibitors of NAD^+ Dependent Lysine Deacetylases” (Frontiers in Oncology, 2020).
“Also recorded” adds a separate entry of the source.

Legend:
HeLa cells [1] = assay: Cell proliferation assay with HeLa cells; assay type: cell-based, human; conditions: EX-527 20 μM, S1th 13 12 μM, S1th 12 20 μM, S1th 10 30 μM; up to 120 h
Procedure: (§1) 1.5 × 10^4 cells/well were seeded in 24-well plates and grown in DMEM 10% in presence of DMSO, 20 μM EX-527, 12 μM S1th 13, 20 μM S1th 12, or 30 μM S1th 10. The growth media containing the drugs was replaced every 48 h. Cells were collected and counted at the indicated times starting 24 h after seeding (0, 24, 48, 72, 96, and 120 h). The experiment was performed twice in duplicates.

MCF7 cells [2] = assay: Colony forming assay with MCF7 cells; assay type: cell-based, human; conditions: concentrations as for HeLa
Procedure: (§2) For colony assays, 50 cells per well were seeded in 6-well plates and grown in the same conditions with the same drug concentrations as for the proliferation assays. In this case, the growth media containing the drugs was replaced every 48 h. After 7–10 days, when isolated colonies were formed, wells were washed with PBS, and cells were fixed with cold methanol for 5 min at RT. Cells were stained with crystal violet for 10 min at RT and washed with H2O. Images were acquired using iBright (Thermo Fisher Scientific, MA, USA). For quantification, cells of each well were resuspended in 10% glacial acetic acid to dissolve crystal violet whose levels were monitored by measuring absorbance at 590 nm. The experiment was performed in duplicates.

HeLa cells [3] = assay: Colony forming assay with HeLa cells; assay type: cell-based, human; conditions: 7–10 days; concentrations as in proliferation assay
Procedure: as §2

Sirt1 = molecular target: T1, Sirt1 (Homo sapiens, UniProt Q96EB6); assay: Fluorescent thermal shift assay (FTSA), Sirt1; assay type: binding
T1 construct: made in house; host or cells: E. coli BL21 Star (DE3)
T1 sequence (Q96EB6 134-747): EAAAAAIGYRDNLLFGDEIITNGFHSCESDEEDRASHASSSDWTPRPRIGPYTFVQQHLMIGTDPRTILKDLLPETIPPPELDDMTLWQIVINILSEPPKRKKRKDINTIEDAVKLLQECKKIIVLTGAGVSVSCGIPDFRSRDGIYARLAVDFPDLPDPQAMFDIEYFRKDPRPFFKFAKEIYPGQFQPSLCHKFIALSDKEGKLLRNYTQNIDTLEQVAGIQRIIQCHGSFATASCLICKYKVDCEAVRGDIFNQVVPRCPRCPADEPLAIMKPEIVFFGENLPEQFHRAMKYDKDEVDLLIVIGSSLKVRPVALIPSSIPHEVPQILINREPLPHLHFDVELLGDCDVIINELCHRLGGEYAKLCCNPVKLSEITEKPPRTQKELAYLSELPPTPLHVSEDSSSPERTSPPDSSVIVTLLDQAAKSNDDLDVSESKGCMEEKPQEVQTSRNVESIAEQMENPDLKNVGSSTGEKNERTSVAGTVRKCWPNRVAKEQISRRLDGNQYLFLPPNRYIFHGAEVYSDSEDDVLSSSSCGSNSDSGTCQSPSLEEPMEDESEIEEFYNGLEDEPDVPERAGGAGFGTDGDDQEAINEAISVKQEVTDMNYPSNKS
Procedure: In a 96-well plate (Hard-Shell® PCR-plates, 96-well, thin-wall, BioRAD, USA) 14 μL Sirt1_134−747 in assay buffer (0.3 mg/mL final assay concentration, 50 mM Tris/HCl, 137 mM NaCl, 2.7 mM KCl, 1 mM MgCL2, pH 8.0) were mixed with 1 μL inhibitor in DMSO (100 μM) or DMSO [final assay concentration 5% (v/v)] as a control and 5 μL SyproOrange (1:100 in assay buffer). The fluorescence intensity was monitored during a constant increase of temperature from 20 to 95°C, 1 K per 20 s, using a real-time-PCR-machine (C1000 TouchTM Thermal Cycler, CFX96TM Real-Time System, BioRAD, USA). Melting temperatures were calculated via GraphPad Prism according to a published procedure ([60]).

[4] = test system: H3K9ac and p53K382ac in HeLa cells; assay: Analysis of acetylation status in HeLa cells by western blotting; assay type: cell-based, human; conditions: 48 h, concentrations as in proliferation assay
Procedure: 5 × 10^4 cells were plated in 6-well plates and grown with the conditions and drug concentrations as described for the proliferation assay. Cells were harvested at 48 h and resuspendend in protein loading buffer. After sonication the samples were centrifuged at 14,000 rpm in an Eppendorf microcentrifuge (Eppendorf, DE) and the supernatants were analyzed by western-blot. The following antibodies were used: histone H3 (Cell Signaling #9715), histone H3K9ac (Cell Signaling # C5B11), GAPDH (Cell Signaling #D16H11), p53 (ThermoFisher #PA527822), and p53K382ac (Abcam 75754). Quantification was carried out using imageJ.

HeLa cells [5] = assay: Wound healing assay with HeLa cells; assay type: cell-based, human
Procedure: For wound healing assay 6 × 10^5 cells per well were seeded in 6-well plates and grown for 24 h in DMEM containing 10% FBS. After 24 h, a lineal gap between cells was created in the middle of the plate by scratching the cell monolayer with a 1 mL pipette tip in the same position in each well. Once the scratching is done, plates were washed twice with PBS and then grown in DMEM containing 1% FBS and the drugs in the same concentrations as for the proliferation assay. As described previously, the growth media 1% FBS containing the drugs was replaced every 48 h. Images were acquired in an Optimal microscope (Leica microscopes, DE) using Leica Application Suite X (LAS X) every 24 h (0, 24, 48, and 72 h) until the gap closed. The quantification of the area of the gap at the indicated times was performed with Image J-MRI Wound Healing Tool. The experiment was performed only once.

[6] = test system: γH2AX/H2AX levels in MEF cells; assay: γH2AX level determination by western blot; assay type: cell-based, mouse
Procedure: Sirt1 WT and KO MEFS cells were treated with 10 μM EX-527, 12 μM S1th 13 (6), 20 μM S1th 12 (5), 30 μM S1th 10 (7) and 30 μM SirReal2 [Sirt2 inhibitor, synthesized according to ([62])] for 48 h. Oxidative stress was induced using 10 μM Camptothecin 2 h. Whole-cell extracts were performed according to the Dignam protocol ([63]). Primary antibodies used for the western blot were anti-H2AX and anti-γH2AX (ab11175 and ab2893 resp., Abcam, UK). Densiometric analysis of the western blots was performed with Quantity One software (Bio-Rad Laboratories, Inc., USA).

MCF7 cells [7] = assay: Cell proliferation assay with MCF7 cells; assay type: cell-based, human; conditions: concentrations as for HeLa
Procedure: as §1

NC(=O)C1CCCc2c1[nH]c1ccc(Cl)cc21 (stereo not drawn) [EX-527, reference compound]
cell proliferation of HeLa cells (HeLa cells [1]): significantly decreased cell proliferation
colony forming capabilities of MCF7 cells (MCF7 cells [2]): significantly decreased
colony forming of HeLa cells (HeLa cells [3]): completely suppressed colony forming
effect on Tm of Sirt1 (in words) (Sirt1): barely effected; also recorded: very small shift or no shift at all
H3K9 acetylation in HeLa cells [4]: no hyperacetylation
p53K382 acetylation in HeLa cells [4]: increased acetylation levels
H3K9 acetylation in HeLa cells ([4]; listed as 1): did not show clear hyperacetylation
migration of HeLa cells (wound healing), 24 h (HeLa cells [5]; 24 h, concentrations as in proliferation assay, performed once): failed to impair migration
wound healing of HeLa cells, 72 h (HeLa cells [5]; 72 h): mild effect on wound healing
γH2AX/H2AX levels without Camptothecin ([6]; 48 h, EX-527 10 μM, S1th 10 30 μM, S1th 12 20 μM, S1th 13 12 μM, SirReal2 30 μM): decreased
γH2AX/H2AX levels after addition of Camptothecin ([6]; Camptothecin 10 μM 2 h, same inhibitor concentrations): strong decrease
cell proliferation of MCF7 cells (MCF7 cells [7]): only have a mild effect
